System: nitrifying bacteria
Procedure: In accordance with the present invention, a method of treating skin problems in fish comprises adding a teaspoon (5 ml) of a suspension of colloidal silver in which the concentration of silver ranges between 6 ppm and 12 ppm (parts per million) to 10 gallons of water in an aquarium every other day and then changing 50% of the water once a week, so that the water to which the fish to be treated are exposed has a silver concentration initially in the range of 0.77 ppb to 1.5 ppb (parts per billion).

colloidal silver
survival of nitrifying bacteria: some nitrifying bacteria can survive this treatment
